Test [1] deals with T. congolense (Tc) IL3000. Kind of test: Anti-trypanosomal assay (CellTiter-Glo), TcIL3000. The conditions noted are these: mean ± SD. The class given is cell-based. The protocol:
Six trypanosome species namely T. b. brucei (Tbb) GuTat3.1, T. b. rhodesiense (Tbr) IL1501, T. b. gambiense (Tbg) IL1922, T. evansi (Tev) Tansui, T. equiperdum (Teq) IVM-t1 and T. congolense (Tc) IL3000, were cultivated using HMI-9 medium and used in the study. The trypanocidal activity of hesperidin and neohesperidin dihydrochalcone, shown below, was assessed at 25 μg/ml or […].
(§1) The IC50 of Neohesperidin dihydrochalcone against six trypanosome species was determined using serial dilution in a 96-well plate (Optical bottom plate, ThermoFisher SCIENTIFIC, MA, USA). After three days, […] of CellTiter-Glo Luminescent cell viability reagent (Promega Corporation, WI, USA) was aliquoted into each well and luminosity was measured with a GloMax plate reader (Promega Corporation, WI, USA).
(In general: ATP-based viability assays read luminescence as a measure of living cells.)

For test [2], the system named is T. b. brucei (Tbb) GuTat3.1. Briefly: Anti-trypanosomal assay (CellTiter-Glo), TbbGUTat3.1. The class given is cell-based. The following applies: mean ± SD. As to the method: (§2) Six trypanosome species namely T. b. brucei (Tbb) GuTat3.1, T. b. rhodesiense (Tbr) IL1501, T. b. gambiense (Tbg) IL1922, T. evansi (Tev) Tansui, T. equiperdum (Teq) IVM-t1 and T. congolense (Tc) IL3000, were cultivated using HMI-9 medium and used in the study. […]
as §1

Test [3] relates to T. b. rhodesiense (Tbr) IL1501. Kind of test: Anti-trypanosomal assay (CellTiter-Glo), TbrIL1501. The following applies: mean ± SD. The class given is cell-based. As to the method: as §2, §1
Test [4] deals with T. b. gambiense (Tbg) IL1922. Briefly: Anti-trypanosomal assay (CellTiter-Glo), TbgIL1922. The class given is cell-based. The following applies: mean ± SD. As to the method:
as §2, §1

A further test relates to T. evansi (Tev) Tansui. Briefly: Anti-trypanosomal assay (CellTiter-Glo), Tev Tansui. The conditions noted are these: mean ± SD. The class given is cell-based. As to the method:
as §2, §1

The subject of test [5] is T. equiperdum (Teq) IVM-t1. Briefly: Anti-trypanosomal assay (CellTiter-Glo), Teq IVM-t1. The class given is cell-based. As to the method: as §2, §1
The next test relates to six trypanosome species. Briefly: Anti-trypanosomal assay, statements over all six species. The class given is cell-based, Trypanosoma. The conditions noted are these: for antitrypanosomal activity: assayed at 0.25 or 25 μg/ml; for trypanocidal activity (words): at about 25 μg/ml. The protocol: as §2, §1
A further test has as its system Trypanosoma. The conditions noted are these: previously tested; cited from earlier work.
The test system of another test is Toxoplasma gondii. The following applies: compared to other flavonoids and conventional medicines; cited from earlier work.
Where [6] appears, read: Trypanosoma equiperdum, read-out: Inhibition rate.

Values after ≈ are worked out from the molar mass of the structure shown.

The term inhibition denotes the relative decrease from the control value, in per cent. As to `COc1ccc([C@@H]2CC(=O)c3c(O)cc(O[C@@H]4O[C@H](CO[C@@H]5O[C@@H](C)[C@H](O)[C@@H](O)[C@H]5O)[C@@H](O)[C@H](O)[C@H]4O)cc3O2)cc1O` [Hesperidin, hesperidin, reference compound], the inhibition at 0.25 µg/mL in test [1] (Trypanosoma congolense, TcIL3000, 0.25 μg/ml, read-out: Inhibition rate) turned out to be 0%; in test [2] (Trypanosoma brucei, TbbGUTat3.1, 0.25 μg/ml, read-out: Inhibition rate), 0%; in [3] (Trypanosoma brucei, RHODESIENSE, TbrIL1501, 0.25 μg/ml, read-out: Inhibition rate), 7.17 ± 3.1%; in test [4] (Trypanosoma brucei, GAMBIENSE, TbgIL1922, 0.25 μg/ml, read-out: Inhibition rate), 1.56 ± 2.2%; in the test on T. evansi (Tev) Tansui (0.25 μg/ml, read-out: Inhibition rate), 7.67 ± 5.9%; in test [5] (setting [6]) it was 0.015 ± 0.022%. Further, the inhibition at 25 µg/mL in test [1] (Trypanosoma congolense, TcIL3000, 25 μg/ml, read-out: Inhibition rate) stood at 0%; in test [2] (Trypanosoma brucei, TbbGUTat3.1, 25 μg/ml, read-out: Inhibition rate), 1.05 ± 0.99%; in test [3] (Trypanosoma brucei, RHODESIENSE, TbrIL1501, 25 μg/ml, read-out: Inhibition rate), 0%; in [4] (Trypanosoma brucei, GAMBIENSE, TbgIL1922, 25 μg/ml, read-out: Inhibition rate), 0%; in the test on T. evansi (Tev) Tansui (25 μg/ml, read-out: Inhibition rate), 0%; in [5] (setting [6]), 0.97 ± 1.37%. Besides, in the test on six trypanosome species, the “antitrypanosomal activity” value was “inadequate antitrypanosomal activity”. Also, the “trypanocidal activity (words)” value in the test on six trypanosome species was “no activity”. The “trypanocidal action” value in the test on Trypanosoma is “did not previously show any trypanocidal action”.

What is called IC50 is the point on the concentration scale where inhibition reaches its midpoint. Regarding `COc1ccc(CCC(=O)c2c(O)cc(O[C@@H]3O[C@H](CO)[C@@H](O)[C@H](O)[C@H]3O[C@@H]3O[C@@H](C)[C@H](O)[C@@H](O)[C@H]3O)cc2O)cc1O` [Neohesperidin dihydrochalcone, neohesperidin dihydrochalcone], the Inhibition rate in test [1] (TcIL3000, 0.25 μg/ml) is 0%; in [1] (TcIL3000, 25 μg/ml), 82.07 ± 6.4%; in test [2] (TbbGUTat3.1, 0.25 μg/ml), 2.89 ± 1.69%; in test [2] (TbbGUTat3.1, 25 μg/ml), 99.65 ± 0.2%; in [2] (TbbGUTat3.1, 25 μg/ml, listed as neohesperidin dihydrochalcone) it was “more than 99%”; in test [3] (TbrIL1501, 0.25 μg/ml), 3.95 ± 5.59%. Besides, the Inhibition rate in [3] (TbrIL1501, 25 μg/ml) is 99.63 ± 0.25%; in [3] (TbrIL1501, 25 μg/ml, listed as neohesperidin dihydrochalcone), “more than 99%”; in [4] (TbgIL1922, 0.25 μg/ml) it was 1.09 ± 0.64%; in [4] (TbgIL1922, 25 μg/ml) it was 99.63 ± 0.28%; in test [4] (TbgIL1922, 25 μg/ml, listed as neohesperidin dihydrochalcone), “more than 99%”; with T. evansi (Tev) Tansui (0.25 μg/ml) it was 3.59 ± 5.5%. The Inhibition rate in the test on T. evansi (Tev) Tansui (25 μg/ml) was 99.18 ± 0.22%; in the test with T. evansi (Tev) Tansui (25 μg/ml, listed as neohesperidin dihydrochalcone), “more than 99%”; in [5] (Teq IVM-t1, 0.25 μg/ml, mean ± SD), 0.59 ± 0.84%; in test [5] (Teq IVM-t1, 25 μg/ml, mean ± SD) it was 98.8 ± 0.17%; in [5] (Teq IVM-t1, 25 μg/ml, mean ± SD, listed as neohesperidin dihydrochalcone), “more than 99%”. Besides, the IC50 in [1] (TcIL3000, three days) is 22.53 ± 2.3 µg/mL (≈ 36.8 µM); in test [2] (TbbGUTat3.1, three days), 11.97 ± 0.026 µg/mL (≈ 19.5 µM); in test [3] (TbrIL1501, three days) it was 9.47 ± 2.73 µg/mL (≈ 15.5 µM); in [4] (TbgIL1922, three days), 8.88 ± 3.84 µg/mL (≈ 14.5 µM); with T. evansi (Tev) Tansui (three days) it was 12.69 ± 0.98 µg/mL (≈ 20.7 µM); in test [5] (Teq IVM-t1, three days, mean ± SD), 11.38 ± 3.93 µg/mL (≈ 18.6 µM). Also, in the test on six trypanosome species, the “antitrypanosomal activity” value was “broad-spectrum and strong inhibition of trypanosomal growth”. Also, the “trypanocidal activity (words)” value in the test with six trypanosome species is “substantial trypanocidal activity”; with six trypanosome species (listed as neohesperidin dihydrochalcone), “suppressed all the test strains”. Besides, the “inhibition rate, range over the species” value with six trypanosome species (low concentration of 0.25 μg/ml) was 1.09-3.95%. Besides, the “IC50 range over the six species” value with six trypanosome species (six Trypanosoma species) was in the range of 8.88 to 22.53 µg/mL.

Regarding `COc1ccc([C@@H]2CC(=O)c3c(O)cc(O[C@@H]4O[C@H](CO)[C@@H](O)[C@H](O)[C@H]4O[C@@H]4O[C@@H](C)[C@H](O)[C@@H](O)[C@H]4O)cc3O2)cc1O` [neohesperidin], in the test on Toxoplasma gondii, the “antiprotozoal activity against Toxoplasmosis” value is reported as “not as effective as other standard drugs or flavonoids”.

These data come from patent publication US11806358B1, “Method of treating trypanosomiasis” (KING FAISAL UNIVERSITY, priority 2023, dated 2023).
